According to article PMC5388927 (Virology, 2008):

Assays:
[1] = system: WNV VLP; type: cell-based, West Nile virus; conditions: 1.5 μM
[2] = system: DENV-1 VLP; type: cell-based, dengue virus (DENV-1); conditions: 1.5 μM
[3] = system: WEEV (strain Cova 746); type: cell-based, Western equine encephalitis virus
[4] = system: VSV (New Jersey serotype); type: cell-based, vesicular stomatitis virus
[5] = system: poliovirus; conditions: cited from earlier work
[6] = system: SARS-CoV; conditions: cited from earlier work
[7] = system: herpes simplex virus (type 1); conditions: cited from earlier work
[8] = system: vaccinia virus; conditions: cited from earlier work
[9] = system: HIV-1; conditions: cited from earlier work
[10] = in vitro; conditions: African green monkey

**Q.** Which results are given for O[C@H]1[C@H]2c3cc4c(cc3CN3CCC(=C[C@@H]1O)[C@H]23)OCO4 [Lycorine]?
**A.** reduction of luciferase signals [1]: 1400 fold; reduction of luciferase signals [2]: 1200 fold; suppression of viral titer [3]: suppressed titers of neither WEEV nor VSV; suppression of viral titer [4]: suppressed titers of neither WEEV nor VSV; antiviral activity [5]: inhibit; suppression of viral translation [5]: ~90%; antiviral activity [6]: inhibit; antiviral activity [7]: inhibit; antiviral activity [8]: inhibit; antiviral activity [9]: does not inhibit; viability at 1.5 µM [10]: > 90%
